In general, inhibition refers to the relative decrease from the control value, in per cent. Usually MIC stands for the least concentration at which growth counts as inhibited. By IC50 is commonly meant the concentration that inhibits the measured activity by half. As a reminder, the logP is the decadic logarithm of the partition coefficient of the neutral form, usually between octanol and water. Read a low logP as a more hydrophilic compound.

In brackets after ≈: the same amount, converted by molar mass. Activity calls are given as the source filed them. The rule behind the calls is not given here. Bounds are passed on as bounds.

The text below walks through data of ChEMBL document CHEMBL4610027, “Identification of Mycobacterium tuberculosis CtpF as a target for designing new antituberculous compounds” (Bioorg Med Chem, 2020).

Data set [1] can be described thus: Cytotoxicity against mouse MHS cells assessed as cell death at 100 ug/ml incubated for 48 hrs by crystal violet staining based spectrophotometric analysis relative to control.
Data set [2] concerns Mycobacterium tuberculosis H37Ra. Description: Inhibition of calcium stimulated Mycobacterium tuberculosis H37Ra CtpF ATPase activity at 100 uM using Na2ATP as substrate preincubated for 30 mins followed by substrate addition and measured after 30 mins by colorimetric analysis relative to control.
Data set [3] has as its system Mycobacterium tuberculosis. Description: Antimycobacterial activity against Mycobacterium tuberculosis H37Rv incubated for 6 days by resazurin dye-based colorimetric method. It is filed as functional. The conditions noted are these: 144 h. In general terms: Alamar Blue is a resazurin reagent that responds to reducing activity.
Data set [4] deals with Mycobacterium tuberculosis. Description: Antimycobacterial activity against Mycobacterium tuberculosis H37Rv assessed as inhibition of bacterial growth at MIC incubated for 21 days by colony formation assay relative to control. The data set is classed as functional.
Data set [5] is described as follows: (§1) Inhibition of calcium stimulated Mycobacterium tuberculosis H37Ra CtpF ATPase activity using Na2ATP as substrate preincubated for 30 mins followed by substrate addition and measured after 30 mins by colorimetric analysis.
Data set [6] is described as follows: Octanol/water partition coefficient, log P of the compound. The data set is classed as physicochemical.
Data set [7] is described as follows: Hemolytic activity against human erythrocytes assessed as hemolysis at 100 ug/ml incubated for 2 hrs by spectrophotometric analysis. It is filed as ADME, cell-based, Erythrocyte. The conditions noted are these: read-out: Activity.
Data set [8] has as its system Mycobacterium tuberculosis. Description: Potency index, ratio of CPA MIC to test compound MIC for Mycobacterium tuberculosis H37Rv. The data set is classed as functional.
A short description of data set [9]: Inhibition of Bacillus cereus Ca2+ ATPase.
Data set [10] relates to Mycobacterium tuberculosis H37Ra. The data set is described as §1.
Data set [11] has as its system Listeria monocytogenes. Put plainly: Inhibition of Listeria monocytogenes Ca2+ ATPase.

Take `O=C(CCCC[C@@H]1SC[C@@H]2NC(=O)N[C@@H]21)NCc1cn(-c2ccccc2)nc1-c1ccccc1`: the Activity in data set [1] is on record as 30%. The inhibition in data set [2] was 48.2%. Besides, the MIC in data set [3] was found to be 100 µg/mL (≈ 210 µM). For the same molecule, in [4], the “inhibition (INH)” value amounted to 29.5%. For the same molecule, in data set [5], the IC50 came to 4.1 µM. In data set [6], this molecule gave a logP of 3.34. The hemolysis at 2 h, 100 ug/ml in data set [7] came to 2.4%.

As to `C[C@@H](OC(=O)CCCNC1=NS(=O)(=O)c2ccccc21)C(=O)c1c[nH]c2ccccc12`, the Activity in [1] was found to be 31.6%. In data set [3], the MIC worked out at 100 µg/mL (≈ 228 µM). For the same molecule, in data set [4], the “inhibition (INH)” value is on record as 37.3%. Besides, the half-maximal inhibitory concentration (IC50) in [5] worked out at 11.8 µM. In [6], the lipophilicity (logP) worked out at 1.82. For the same molecule, the hemolysis at 2 h, 100 ug/ml in data set [7] came out at 2.1%.

With `NS(=O)(=O)[C@H]1CC=C(CNC(=O)CCCc2c[nH]c3ccccc23)S1`, the Activity in data set [1] is recorded as 12.9%. The inhibition in data set [2] amounted to 44.9%. In [3], this molecule came in with an MIC of 50 µg/mL (≈ 132 µM). Further, the “inhibition (INH)” value in [4] was 64%. Further, the IC50 in data set [5] came out at 4.4 µM. In data set [8], the Ratio came to 0.5. Further, the logP in data set [6] turned out to be 1.68. Moreover, the hemolysis at 2 h, 100 ug/ml in [7] is 2%.

Turning to `CC(=O)C1=C(O)[C@@H]2[C@H]3c4c[nH]c5cccc(c45)C[C@H]3C(C)(C)N2C1=O` [CYCLOPIAZONIC ACID], in data set [1], the Activity is 50.8%. In addition, it took 100 µg/mL (≈ 297 µM) to inhibit growth in data set [3] (MIC). Further, the “inhibition (INH)” value in [4] stood at 29.9%. Also, the IC50 in data set [9] was found to be 4 µM; in data set [5] it was 7.2 µM. Also, the inhibition entry in data set [10] was “Dose-dependent effect”. In [11], this molecule registered an INH of 918 µM. In addition, the logP in data set [6] was 2.21. Also, in data set [7], the hemolysis at 2 h, 100 ug/ml worked out at 6.6%.

Turning to `COCC(=O)Nc1c(C(=O)OC)n(CCC(C)C)c2ncc(N[C@@H](C)C(C)(C)O)cc12`, the Activity in data set [1] is recorded as 19.8%. In data set [3], the MIC worked out at 50 µg/mL (≈ 115 µM). In addition, the “inhibition (INH)” value in [4] was 60.7%. Besides, the IC50 in [5] was 8 µM. The Ratio in data set [8] was found to be 0.5. This molecule had a log partition coefficient (logP) in [6] of 3.32. The hemolysis at 2 h, 100 ug/ml in data set [7] came out at 0.6%.

As to `CCC[C@H](C)NC(=O)CSc1nc2cc(S(=O)(=O)Nc3ccccc3OC)ccc2o1`, the Activity in [1] is 39.5%. For the same molecule, the minimum inhibitory concentration (MIC) in [3] is > 200 µg/mL. Further, the inhibition entry in [4] is “inactive”. Moreover, the IC50 in [5] was found to be 35.9 µM. In [6], this molecule displayed a logP of 4.08. For the same molecule, the hemolysis at 2 h, 100 ug/ml in data set [7] was 1%.

Take `CCCCC(=O)Nc1cccc(C(=O)NCCCNc2cccnc2)c1`: in data set [1], the Activity is 21.4%. Besides, the inhibition in [2] amounted to 46.9%. Besides, the MIC in [3] is 100 µg/mL (≈ 282 µM). Further, the “inhibition (INH)” value in [4] was 52.9%. The IC50 in data set [5] came out at 4.2 µM. This molecule registered a logP in [6] of 2.91. The hemolysis at 2 h, 100 ug/ml in [7] is 1.2%.
